ChEMBL document CHEMBL1201862, “PubChem BioAssay data set” (2004)
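The compound was tested at five concentrations on cells cultured in 96-well plates, with a 48-hour exposure period. GI50: concentration for 50% inhibition of growth.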 The source made the active and inactive calls. Cut-off read from the data, not from the text of the source: active = GI50 up to about 1.1 µM and inactive = higher. Non-standard residues stand in square brackets, D forms with d. Residues, ends and D or L forms follow the SMILES beside them. *: point of attachment. hSer = N[CH](CCO)C(=O)O; Boc = CC(C)(C)OC(=O)*

Key:
Experiment in all cases: NCI tumour cell line growth inhibition, 48 h
U-251 = system: U-251
BT-549 = system: BT-549
SW-620 = system: SW-620
T47D = system: T47D
OVCAR-3 = system: OVCAR-3
CCRF-CEM = system: CCRF-CEM
UACC-257 = system: UACC-257
ACHN = system: ACHN
RPMI-8226 = system: RPMI-8226
SF-539 = system: SF-539
MDA-N = system: MDA-N
KM12 = system: KM12
786-0 = system: 786-0
OVCAR-4 = system: OVCAR-4
DU-145 = system: DU-145
MDA-MB-435 = system: MDA-MB-435
A498 = system: A498
SK-MEL-28 = system: SK-MEL-28
SNB-19 = system: SNB-19
OVCAR-5 = system: OVCAR-5

Row | SMILES | GI50 (U-251) | GI50 (BT-549) | GI50 (SW-620) | GI50 (T47D) | GI50 (OVCAR-3) | GI50 (CCRF-CEM) | GI50 (UACC-257) | GI50 (ACHN) | GI50 (RPMI-8226) | GI50 (SF-539) | GI50 (MDA-N) | GI50 (KM12) | GI50 (786-0) | GI50 (OVCAR-4) | GI50 (DU-145) | GI50 (MDA-MB-435) | GI50 (A498) | GI50 (SK-MEL-28) | GI50 (SNB-19) | GI50 (OVCAR-5)
1 | Nc1c(OCC(=O)O)ccc2cc(S(=O)(=O)O)ccc12 | > 100 µM (inactive) | > 100 µM (inactive) | > 100 µM (inactive) | > 100 µM (inactive) | > 100 µM (inactive) | > 100 µM (inactive) | > 100 µM (inactive) | > 100 µM (inactive) | > 100 µM (inactive) | > 100 µM (inactive) | > 100 µM (inactive) | > 100 µM (inactive) | > 100 µM (inactive) | > 100 µM (inactive) | > 100 µM (inactive) | > 100 µM (inactive) | > 100 µM (inactive) | > 100 µM (inactive) | > 100 µM (inactive) | 
2 | COc1cc(C2SC(=N)Nc3c2c(C)nn3C(=O)c2ccccc2O)ccc1O (stereo not drawn) | 1.74 µM (inactive) | > 2.63 µM (inactive) | > 4.71 µM (inactive) | 0.971 µM (active) | > 2.93 µM (inactive) | 2.01 µM (inactive) | 0.94 µM (active) | 1.21 µM (inactive) | > 2.09 µM (inactive) |  | 1.75 µM (inactive) | > 2.13 µM (inactive) | > 2.33 µM (inactive) | > 2.1 µM (inactive) | 1.69 µM (inactive) | 1.54 µM (inactive) | 4.51 µM (inactive) | > 10 µM (inactive) | > 2.39 µM (inactive) | > 5.53 µM (inactive)
3 | CCCCCCCCCCCCN1[C@H]2CCC[C@H]2C(O)[C@@H]2CCC[C@@H]21 (stereo partly drawn) | 77.4 µM (inactive) | 42.3 µM (inactive) | > 100 µM (inactive) | 29.2 µM (inactive) | > 100 µM (inactive) | > 100 µM (inactive) | > 100 µM (inactive) | > 100 µM (inactive) | > 100 µM (inactive) |  | > 100 µM (inactive) | 68.2 µM (inactive) | > 100 µM (inactive) | > 100 µM (inactive) | > 100 µM (inactive) | > 100 µM (inactive) | > 100 µM (inactive) | > 100 µM (inactive) | > 100 µM (inactive) | > 100 µM (inactive)
4 | COc1cc(/C=C2\C(=O)N(c3ccc(Cl)cc3)C(c3ccccc3)S2(=O)=O)cc(OC)c1OC (stereo not drawn) | 29.1 µM (inactive) | 14.3 µM (inactive) | 32.2 µM (inactive) | 2.77 µM (inactive) | 25.4 µM (inactive) | 8.53 µM (inactive) | 21.4 µM (inactive) |  | 7.46 µM (inactive) | 57 µM (inactive) | 2.04 µM (inactive) | 3.72 µM (inactive) | 39.4 µM (inactive) | 8.89 µM (inactive) | > 100 µM (inactive) | 0.394 µM (active) | > 45.5 µM (inactive) | > 54.3 µM (inactive) | 20 µM (inactive) | 9.04 µM (inactive)
5 | COCCC(NC(=O)C(CC(C)C)NC(=O)OC(C)(C)C)C(N)=O (stereo not drawn) (Boc-Leu-[hSer](Me)-NH2; configuration not given here) | > 100 µM (inactive) | > 100 µM (inactive) | > 100 µM (inactive) | > 100 µM (inactive) | > 100 µM (inactive) | > 100 µM (inactive) | > 100 µM (inactive) | > 100 µM (inactive) | > 100 µM (inactive) | > 100 µM (inactive) | > 100 µM (inactive) | > 100 µM (inactive) | > 100 µM (inactive) | > 100 µM (inactive) | > 100 µM (inactive) | > 100 µM (inactive) | > 100 µM (inactive) | > 100 µM (inactive) | > 100 µM (inactive) | 
6 | CNC(=S)NNc1ncnc2c1ncn2-c1ccc(C)cc1 | > 100 µM (inactive) | > 100 µM (inactive) | > 100 µM (inactive) | > 100 µM (inactive) | > 100 µM (inactive) | > 100 µM (inactive) | > 100 µM (inactive) |  | > 100 µM (inactive) | > 100 µM (inactive) | > 100 µM (inactive) | > 100 µM (inactive) | > 100 µM (inactive) | > 100 µM (inactive) | > 100 µM (inactive) | > 100 µM (inactive) | > 100 µM (inactive) | > 100 µM (inactive) | > 100 µM (inactive) | > 100 µM (inactive)
7 | NS(=O)(=O)c1ccc(NCc2cnc3ccccc3c2)cc1 | > 100 µM (inactive) | 62.8 µM (inactive) | > 100 µM (inactive) | > 100 µM (inactive) | > 100 µM (inactive) |  | > 100 µM (inactive) | > 100 µM (inactive) | > 100 µM (inactive) | 30.5 µM (inactive) | > 100 µM (inactive) | > 100 µM (inactive) | 39.4 µM (inactive) | > 100 µM (inactive) | > 100 µM (inactive) | > 100 µM (inactive) | > 100 µM (inactive) | > 100 µM (inactive) | > 100 µM (inactive) | > 100 µM (inactive)
